Assay results: PubChem BioAssay (NCI)
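Method: 48-hour compound exposure of cells in 96-well plates, five concentrations, linear interpolation of endpoints. GI50 is the concentration that inhibits growth by half. TGI denotes the concentration required for complete inhibition of growth.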

Experiments:
Assay in all cases: DTP human tumour cell line panel, 48 h
A498 renal = system: A498 renal
A549 NSCLC = system: A549 NSCLC
CAKI-1 renal = system: CAKI-1 renal
COLO 205 colon = system: COLO 205 colon
DU-145 prostate = system: DU-145 prostate
EKVX NSCLC = system: EKVX NSCLC
HCC-2998 colon = system: HCC-2998 colon
HL-60(TB) leukemia = system: HL-60(TB) leukemia
HOP-62 NSCLC = system: HOP-62 NSCLC
HS 578T breast = system: HS 578T breast
HT29 colon = system: HT29 colon
IGROV1 ovarian = system: IGROV1 ovarian
K-562 leukemia = system: K-562 leukemia
LOX IMVI melanoma = system: LOX IMVI melanoma
MALME-3M melanoma = system: MALME-3M melanoma
MCF7 breast = system: MCF7 breast
MDA-MB-231 breast = system: MDA-MB-231 breast
MDA-MB-435 = system: MDA-MB-435
NCI-H226 lung = system: NCI-H226 lung
NCI-H23 lung = system: NCI-H23 lung
NCI-H460 lung = system: NCI-H460 lung
NCI-H522 lung = system: NCI-H522 lung
NCI/ADR-RES ovarian = system: NCI/ADR-RES ovarian
OVCAR-3 ovarian = system: OVCAR-3 ovarian
OVCAR-4 ovarian = system: OVCAR-4 ovarian
OVCAR-8 ovarian = system: OVCAR-8 ovarian
RPMI-8226 leukemia = system: RPMI-8226 leukemia
SF-268 CNS = system: SF-268 CNS
SF-539 CNS = system: SF-539 CNS
SK-MEL-2 melanoma = system: SK-MEL-2 melanoma
SK-MEL-5 melanoma = system: SK-MEL-5 melanoma
SK-OV-3 ovarian = system: SK-OV-3 ovarian
SN12C renal = system: SN12C renal
SNB-19 CNS = system: SNB-19 CNS
SNB-75 CNS = system: SNB-75 CNS
SR leukemia = system: SR leukemia
SW-620 colon = system: SW-620 colon
TK-10 renal = system: TK-10 renal
U251 CNS = system: U251 CNS
UACC-257 melanoma = system: UACC-257 melanoma
UACC-62 melanoma = system: UACC-62 melanoma
UO-31 renal = system: UO-31 renal
CCRF-CEM leukemia = system: CCRF-CEM leukemia
HCT-116 colon = system: HCT-116 colon
PC-3 prostate = system: PC-3 prostate

COc1cc2c(cc1O)CC[C@@H]1[C@@H]2CC[C@]2(C)[C@@H](OCCN(C)C)CC[C@@H]12
GI50 (A498 renal): 569 nM | TGI (A498 renal): 1370 nM | GI50 (A549 NSCLC): 247 nM | TGI (A549 NSCLC): 1190 nM | GI50 (CAKI-1 renal): 1450 nM | TGI (CAKI-1 renal): 6190 nM | GI50 (COLO 205 colon): 521 nM | TGI (COLO 205 colon): 1170 nM | GI50 (DU-145 prostate): 182 nM | TGI (DU-145 prostate): 5350 nM | GI50 (EKVX NSCLC): 527 nM | TGI (EKVX NSCLC): 28500 nM | GI50 (HCC-2998 colon): 644 nM | TGI (HCC-2998 colon): 1500 nM | GI50 (HL-60(TB) leukemia): 100 nM | TGI (HL-60(TB) leukemia): 232 nM | GI50 (HOP-62 NSCLC): 389 nM | TGI (HOP-62 NSCLC): 1660 nM | GI50 (HS 578T breast): 463 nM | TGI (HS 578T breast): 4000 nM | GI50 (HT29 colon): 158 nM | TGI (HT29 colon): 568 nM | GI50 (IGROV1 ovarian): 818 nM | TGI (IGROV1 ovarian): 5940 nM | GI50 (K-562 leukemia): 150 nM | TGI (K-562 leukemia): 685 nM | GI50 (LOX IMVI melanoma): 94.9 nM | TGI (LOX IMVI melanoma): 192 nM | GI50 (MALME-3M melanoma): 155 nM | TGI (MALME-3M melanoma): 753 nM | GI50 (MCF7 breast): 170 nM | TGI (MCF7 breast): 884 nM | GI50 (MDA-MB-231 breast): 153 nM | TGI (MDA-MB-231 breast): 595 nM | GI50 (MDA-MB-435): 99.7 nM | TGI (MDA-MB-435): 208 nM | GI50 (NCI-H226 lung): 1170 nM | TGI (NCI-H226 lung): 6040 nM | GI50 (NCI-H23 lung): 202 nM | TGI (NCI-H23 lung): 1120 nM | GI50 (NCI-H460 lung): 219 nM | TGI (NCI-H460 lung): 2090 nM | GI50 (NCI-H522 lung): 341 nM | TGI (NCI-H522 lung): 1300 nM | GI50 (NCI/ADR-RES ovarian): 163 nM | TGI (NCI/ADR-RES ovarian): 861 nM | GI50 (OVCAR-3 ovarian): 183 nM | TGI (OVCAR-3 ovarian): 966 nM | GI50 (OVCAR-4 ovarian): 306 nM | TGI (OVCAR-4 ovarian): 5840 nM | GI50 (OVCAR-8 ovarian): 488 nM | TGI (OVCAR-8 ovarian): 5880 nM | GI50 (RPMI-8226 leukemia): 116 nM | TGI (RPMI-8226 leukemia): 312 nM | GI50 (SF-268 CNS): 353 nM | TGI (SF-268 CNS): 5290 nM | GI50 (SF-539 CNS): 129 nM | TGI (SF-539 CNS): 414 nM | GI50 (SK-MEL-2 melanoma): 230 nM | TGI (SK-MEL-2 melanoma): 1040 nM | GI50 (SK-MEL-5 melanoma): 82.8 nM | TGI (SK-MEL-5 melanoma): 164 nM | GI50 (SK-OV-3 ovarian): 356 nM | TGI (SK-OV-3 ovarian): 2110 nM | GI50 (SN12C renal): 803 nM | TGI (SN12C renal): 4050 nM | GI50 (SNB-19 CNS): 777 nM | TGI (SNB-19 CNS): 5140 nM | GI50 (SNB-75 CNS): 78.7 nM | TGI (SNB-75 CNS): 449 nM | GI50 (SR leukemia): 148 nM | TGI (SR leukemia): 894 nM | GI50 (SW-620 colon): 163 nM | TGI (SW-620 colon): 763 nM | GI50 (TK-10 renal): 932 nM | TGI (TK-10 renal): 2810 nM | GI50 (U251 CNS): 219 nM | TGI (U251 CNS): 872 nM | GI50 (UACC-257 melanoma): 138 nM | TGI (UACC-257 melanoma): 355 nM | GI50 (UACC-62 melanoma): 128 nM | TGI (UACC-62 melanoma): 363 nM | GI50 (UO-31 renal): 624 nM | TGI (UO-31 renal): 1480 nM

C=CC1CN2CCC1CC2C(O)c1ccnc2ccc(OC)cc12 (stereo not drawn)
GI50 (A498 renal): > 100000 nM | TGI (A498 renal): > 100000 nM | GI50 (MALME-3M melanoma): > 100000 nM | TGI (MALME-3M melanoma): > 100000 nM | GI50 (NCI-H23 lung): > 100000 nM | TGI (NCI-H23 lung): > 100000 nM | GI50 (RPMI-8226 leukemia): 53000 nM | TGI (RPMI-8226 leukemia): > 100000 nM

COCCCC(NC(=O)C(CC(C)C)NC(=O)OCc1ccc(OC)cc1)C(N)=O (stereo not drawn)
GI50 (OVCAR-4 ovarian): 47.2 µg/mL

C=CCN(CC=C)C(=O)[C@H](CC)[C@@H]1CC[C@@H](C)[C@@H]([C@H](C)[C@@H](O)[C@@H](C)C(=O)[C@H](CC)C2O[C@]3(C=CC(=O)[C@]4(CC[C@@](C)([C@H]5CC[C@](O)(CC)[C@H](C)O5)O4)O3)[C@H](C)C[C@@H]2C)O1 (stereo partly drawn)
GI50 (CAKI-1 renal): 1960 nM | TGI (CAKI-1 renal): > 100000 nM | GI50 (CCRF-CEM leukemia): 2650 nM | TGI (CCRF-CEM leukemia): > 100000 nM | GI50 (HCT-116 colon): 2760 nM | TGI (HCT-116 colon): > 100000 nM | GI50 (K-562 leukemia): 2310 nM | TGI (K-562 leukemia): > 100000 nM | GI50 (PC-3 prostate): 2020 nM | TGI (PC-3 prostate): > 100000 nM
